Experimental data taken from ChEMBL document CHEMBL3885861, “Open TG-GATES”.

Species: Rattus norvegicus
Test: Open TG-GATES - Regimen: Daily Repeat
Format: toxicity, organism-based, Sprague-Dawley
Design: regimen Daily Repeat, gender Male, age 6 weeks
Settings: in vivo, po, 300 mg/kg, route gavage, dose level High; for APTT / Bas / Eos / Fbg / Hb / Ht / Lym / MCH / MCHC / MCV / Mono / Neu / PT / Plat / RBC / Ret / WBC: tissue Blood; for KIDNEY_L / KIDNEY_R / KIDNEY_TOTAL: tissue Kidney; for LIVER: tissue Liver; for A/G / ALP / ALT / AST / BUN / CRE / Ca / Cl / DBIL / GLC / IP / K / LDH / Na / PL / RALB / TBIL / TC / TG / TP / gamma-GTP: tissue Plasma

CC(=O)Nc1ccc2c(c1)Cc1ccccc1-2 [2-ACETYLAMINOFLUORENE]
TERMINAL_BW (72 h, time 3 day): 193.8 g
APTT (72 h, time 3 day): 20.9 s
Bas (72 h, time 3 day): 0.8%
Eos (72 h, time 3 day): 0.8%
Fbg (72 h, time 3 day): 229.4 mg/dL
Hb (72 h, time 3 day): 15.2 g/dL
Ht (72 h, time 3 day): 43.9%
Lym (72 h, time 3 day): 71.4%
MCH (72 h, time 3 day): 21.2 pg
MCHC (72 h, time 3 day): 34.6%
MCV (72 h, time 3 day): 61.2 fL
Mono (72 h, time 3 day): 3%
Neu (72 h, time 3 day): 23.2%
PT (72 h, time 3 day): 12.8 s
Plat (72 h, time 3 day): 140.3 x10_4/uL
RBC (72 h, time 3 day): 716.4 x10_4/ul
Ret (72 h, time 3 day): 2.9%
WBC (72 h, time 3 day): 127.6 x10_2/uL
KIDNEY_L (72 h, time 3 day): 0.9 g
KIDNEY_R (72 h, time 3 day): 0.9 g
KIDNEY_TOTAL (72 h, time 3 day): 1.9 g
LIVER (72 h, time 3 day): 9.4 g
A/G (72 h, time 3 day): 1.5
ALP (72 h, time 3 day): 595 IU/L
ALT (72 h, time 3 day): 24 IU/L
AST (72 h, time 3 day): 72.2 IU/L
BUN (72 h, time 3 day): 10.2 mg/dL
CRE (72 h, time 3 day): 0.4 mg/dL
Ca (72 h, time 3 day): 9.9 mg/dL
Cl (72 h, time 3 day): 105.8 meq/L
DBIL (72 h, time 3 day): 0.096 mg/dL
GLC (72 h, time 3 day): 193.6 mg/dL
IP (72 h, time 3 day): 7.4 mg/dL
K (72 h, time 3 day): 4.3 meq/L
LDH (72 h, time 3 day): 281.2 IU/L
Na (72 h, time 3 day): 142.4 meq/L
PL (72 h, time 3 day): 93.2 mg/dL
RALB (72 h, time 3 day): 2.9 g/dL
TBIL (72 h, time 3 day): 0.2 mg/dL
TC (72 h, time 3 day): 49.2 mg/dL
TG (72 h, time 3 day): 52.2 mg/dL
TP (72 h, time 3 day): 5 g/dL
gamma-GTP (72 h, time 3 day): 1.2 IU/L
TERMINAL_BW ([…], time 7 day): 219.8 g
TERMINAL_BW ([…], time 14 day): 246.4 g
TERMINAL_BW ([…], time 28 day): 274 g
APTT ([…], time 7 day): 19.8 s
Bas ([…], time 7 day): 0.6%
Eos ([…], time 7 day): 1%
Fbg ([…], time 7 day): 207 mg/dL
Hb ([…], time 7 day): 12.9 g/dL
Ht ([…], time 7 day): 36%
Lym ([…], time 7 day): 68.2%
MCH ([…], time 7 day): 21.4 pg
MCHC ([…], time 7 day): 35.9%
MCV ([…], time 7 day): 59.5 fL
Mono ([…], time 7 day): 3%
Neu ([…], time 7 day): 26.4%
PT ([…], time 7 day): 12.4 s
Plat ([…], time 7 day): 184.8 x10_4/uL
RBC ([…], time 7 day): 605.6 x10_4/ul
Ret ([…], time 7 day): 4.7%
WBC ([…], time 7 day): 186.5 x10_2/uL
APTT ([…], time 14 day): 21.6 s
Bas ([…], time 14 day): 0.6%
Eos ([…], time 14 day): 0%
Fbg ([…], time 14 day): 169.6 mg/dL
Hb ([…], time 14 day): 13.2 g/dL
Ht ([…], time 14 day): 40.3%
Lym ([…], time 14 day): 73.2%
MCH ([…], time 14 day): 22.8 pg
MCHC ([…], time 14 day): 32.7%
MCV ([…], time 14 day): 70 fL
Mono ([…], time 14 day): 2.6%
Neu ([…], time 14 day): 23%
PT ([…], time 14 day): 13.5 s
Plat ([…], time 14 day): 163 x10_4/uL
RBC ([…], time 14 day): 576.8 x10_4/ul
Ret ([…], time 14 day): 14.7%
WBC ([…], time 14 day): 142.6 x10_2/uL
APTT ([…], time 28 day): 23 s
Bas ([…], time 28 day): 0%
Eos ([…], time 28 day): 0.4%
Fbg ([…], time 28 day): 142 mg/dL
Hb ([…], time 28 day): 13.2 g/dL
Ht ([…], time 28 day): 39.8%
Lym ([…], time 28 day): 67.6%
MCH ([…], time 28 day): 20.9 pg
MCHC ([…], time 28 day): 33.1%
MCV ([…], time 28 day): 63.1 fL
Mono ([…], time 28 day): 2.6%
Neu ([…], time 28 day): 27.8%
PT ([…], time 28 day): 13.3 s
Plat ([…], time 28 day): 134.9 x10_4/uL
RBC ([…], time 28 day): 632.8 x10_4/ul
Ret ([…], time 28 day): 10.2%
WBC ([…], time 28 day): 131.2 x10_2/uL
KIDNEY_L ([…], time 7 day): 1 g
KIDNEY_R ([…], time 7 day): 1 g
KIDNEY_TOTAL ([…], time 7 day): 2 g
KIDNEY_L ([…], time 14 day): 1.1 g
KIDNEY_R ([…], time 14 day): 1 g
KIDNEY_TOTAL ([…], time 14 day): 2.1 g
KIDNEY_L ([…], time 28 day): 1.2 g
KIDNEY_R ([…], time 28 day): 1.2 g
KIDNEY_TOTAL ([…], time 28 day): 2.3 g
LIVER ([…], time 7 day): 11.5 g
LIVER ([…], time 14 day): 13.3 g
LIVER ([…], time 28 day): 13.2 g
A/G ([…], time 7 day): 1.5
ALP ([…], time 7 day): 616.8 IU/L
ALT ([…], time 7 day): 32 IU/L
AST ([…], time 7 day): 75.8 IU/L
BUN ([…], time 7 day): 13 mg/dL
CRE ([…], time 7 day): 0.5 mg/dL
Ca ([…], time 7 day): 10.4 mg/dL
Cl ([…], time 7 day): 102.8 meq/L
DBIL ([…], time 7 day): 0.1 mg/dL
GLC ([…], time 7 day): 165.8 mg/dL
IP ([…], time 7 day): 6.5 mg/dL
K ([…], time 7 day): 4 meq/L
LDH ([…], time 7 day): 224.2 IU/L
Na ([…], time 7 day): 138.4 meq/L
PL ([…], time 7 day): 113.2 mg/dL
RALB ([…], time 7 day): 2.8 g/dL
TBIL ([…], time 7 day): 0.2 mg/dL
TC ([…], time 7 day): 51.6 mg/dL
TG ([…], time 7 day): 115 mg/dL
TP ([…], time 7 day): 4.7 g/dL
gamma-GTP ([…], time 7 day): 1 IU/L
A/G ([…], time 14 day): 1.5
ALP ([…], time 14 day): 611.4 IU/L
ALT ([…], time 14 day): 39.8 IU/L
AST ([…], time 14 day): 70.4 IU/L
BUN ([…], time 14 day): 13.2 mg/dL
CRE ([…], time 14 day): 0.5 mg/dL
Ca ([…], time 14 day): 9.9 mg/dL
Cl ([…], time 14 day): 104.8 meq/L
DBIL ([…], time 14 day): 0.2 mg/dL
GLC ([…], time 14 day): 160.6 mg/dL
IP ([…], time 14 day): 6.8 mg/dL
K ([…], time 14 day): 4.3 meq/L
LDH ([…], time 14 day): 190 IU/L
Na ([…], time 14 day): 141 meq/L
PL ([…], time 14 day): 135.4 mg/dL
RALB ([…], time 14 day): 2.9 g/dL
TBIL ([…], time 14 day): 0.3 mg/dL
TC ([…], time 14 day): 54.8 mg/dL
TG ([…], time 14 day): 154.4 mg/dL
TP ([…], time 14 day): 4.8 g/dL
gamma-GTP ([…], time 14 day): 1.2 IU/L
A/G ([…], time 28 day): 1.3
ALP ([…], time 28 day): 649.6 IU/L
ALT ([…], time 28 day): 42.4 IU/L
AST ([…], time 28 day): 72.6 IU/L
BUN ([…], time 28 day): 14 mg/dL
CRE ([…], time 28 day): 0.5 mg/dL
Ca ([…], time 28 day): 9.8 mg/dL
Cl ([…], time 28 day): 104.8 meq/L
DBIL ([…], time 28 day): 0.3 mg/dL
GLC ([…], time 28 day): 162.2 mg/dL
IP ([…], time 28 day): 6.6 mg/dL
K ([…], time 28 day): 3.7 meq/L
LDH ([…], time 28 day): 169.8 IU/L
Na ([…], time 28 day): 140.4 meq/L
PL ([…], time 28 day): 145.6 mg/dL
RALB ([…], time 28 day): 2.7 g/dL
TBIL ([…], time 28 day): 0.4 mg/dL
TC ([…], time 28 day): 59.4 mg/dL
TG ([…], time 28 day): 134.8 mg/dL
TP ([…], time 28 day): 4.8 g/dL
gamma-GTP ([…], time 28 day): 4.8 IU/L
